Values joined by “and” are separate entries in the source; they are usually repeats but may differ in a detail not shown here. Equal entries are not always repeated. Structures can show the parent of a compound that is named as a salt.
Columns and labels:
[1] = acid; cited from earlier work
[2] = Thermodynamic solubility at pH 7.4; assay type: physicochemical; conditions: maleate
Protocol: General protocol for thermodynamic solubility at pH 7.4 and pH 2 are described. • A) Thermodynamic Solubility at pH 7.4
Phosphate buffer at pH 7.4 (25 mM) was prepared as follows:
A solution 25 mM of Na2HPO4.12H2O (for 1 L of water, weight 8.96 g) was prepared
A solution 25 mM de KH2PO4 (for 1 L of water weight 3.4 g) was prepared.
Disodium phosphate solution (812 mL) and potassium phosphate (182 mL) solution were mixed and pH checked to be 7.4.
Equipment • Precision analytical balance Mettler Toledo AT20. • Analytical balance Mettler Toledo PJ300. • Liquid chromatograph Waters Alliance 2695. • Stirrer Thermomixer Control of Eppendorf a 25° C. y 1250 rpm • pHmeter with combined semi-micro electrode.
Around 4 mg of compound in an HPLC vial (by duplicate) was dissolved in 1 mL of buffer solution. After stirring in Thermomixer Comfort system for 24 hours at 25° C., in order to achieve thermodynamic equilibrium, solution was centrifuged at 3000 rpm for 15 minutes.
The resulting upper layer was collected with a glass pipette and transferred to the HPLC vials in order to inject them (10 μL) directly to the HPLC instrument.
Standards were made in methanol to ensure overall compound solubility. Preparation of standard calibrators is illustrated below:
Sol.A: 4 mg in 1 mL methanol (4000 μg/mL)
Sol.B: 0.5 mL Sol.A to 5 mL with methanol (400 μg/mL)
Sol.C: 1 mL Sol.B to 10 mL with methanol (40 μg/mL)
Sol.D: 5 mL […] to 50 mL with methanol (4 μg/mL)
Sol.E: 4 mL Sol.D to 10 mL with methanol (1.6 μg/mL)
Calibration curve was created through 10 μL injection of standards, beginning with the more diluted standard. Blanks were also injected, for checking the absence of contamination.
10 μl of test substance were injected, by duplicate, and the average peak area interpolated in the calibration curve (see Tables Examples below).
Chromatographic Conditions • Column: XBridge C18 (or similar) 2.5 μm 4.6×50 mm • Temperature: 35° C. • Mobile phase: ACN/ammonium bicarbonate 10 mM. • Gradient: 0-3.5 min: from 15% CAN to 95% CAN • 3.5-5 min: 95% ACN • 5-6 min: 95 a 15% ACN • 6-8 min: 15% ACN • Flow: 1.5 mL/min • Detection: around the maximum UV wavelength. • B) Thermodynamic Solubility at pH 2

[3] = Pharmacokinetics after single oral administration to male Wistar rat; assay type: in vivo
Protocol: The pharmacokinetics of Example 1 and 2 were tested using the following protocol:
Male Wistar rats weighing 250 to 300 g (±20) supplied by Harlan were used. Water and food was available ad libitum throughout the study.
Administration and Sample Collection
Two rats (R1 and R2) were used in the pharmacokinetic oral studies.
A single dose of tested compound was administered by oral gavage [10 mg/kg as free base (Example 0)] in 0.5% hydroxypropyl methylcellulose (1 mg/ml). From each rat, serial blood samples were collected at 15 and 30 min, 1, 2, 3, 5, 7 and 24 h.
Blood was collected from the saphenous veins into heparinized tubes. Plasma was obtained by blood centrifugation at 4° C. and 2280×g for 10 min and kept at −80° C. until analysis.
Tested compound concentration in plasma samples was determined by least-squares linear regression using a ten-point calibration curve. The calibration curve was prepared in blank plasma from a working solution of 1 mg/ml in DMSO.
Samples were thawed at room temperature on the day of analysis. After plasma protein precipitation of samples and calibration standards with acetonitrile (1:4.3; v/v), the mixture was vortexed and centrifuged (4° C. and 16090×g for 10 min).
Tested compound plasma concentrations were determined by high performance liquid chromatography-triple quadrupole mass spectrometry (HPLC-MS/MS) through the following method:
Column: Atlantis® T3 column (2.1×100 mm, 3 μm) (Waters).
Mobile phase: A: 0.0155% Formic water • B: 0.0155% Formic Acetonitrile
Autosampler wash: Solvent 1:Acetonitrile • Solvent 2: 5% Acetonitrile+95% Water
Standard pharmacokinetic parameters, such as area under the curve (AUC), peak plasma concentration (Cmax), time to peak concentration (tmax), oral bioavailability (F), total plasma clearance (Cl), volume of distribution at steady-state (Vss), mean residence time (MRT) and terminal half-life (t1/2), were determined by non-compartmental analysis of the plasma concentration-time curves (Phoenix v. 6.2.1.51, Pharsight, C A).

[4] = Solubility study of Example 0 in solvents (volumes needed to dissolve the solid); assay type: physicochemical
Protocol: Previously a solubility study was performed with compound Example 0. The results are shown in Table 1 wherein number of volumes needed to dissolve the solid in the corresponding solvent at room temperature is shown. If at 50 volumes, dissolution was not observed at room temperature, mixture was heated to reflux temperature.

[5] = pKa of the free base compound; assay type: physicochemical
[6] = animal 1, 10 mg/kg oral, maleate
[7] = animal 2, 10 mg/kg oral, maleate
[8] = mean of 2 rats, 10 mg/kg oral, listed as example 2, maleate, 10 mg/kg
[9] = mean of 2 rats, 10 mg/kg oral, maleate, 10 mg/kg

Compound: CC(=O)N1CCN(CCOCc2ccn(-c3ccc(F)c(F)c3)n2)CC1 (as salt: hydrochloride) [Example 1]
- melting point: 155 to 157 °C

Compound: O=S(=O)(O)c1ccccc1 [Benzensulphonic acid]
- pKa1 [1]: 0.7

Compound: CC(=O)N1CCN(CCOCc2ccn(-c3ccc(F)c(F)c3)n2)CC1 [Example 2, maleate]
- Conc. Mean ([2]; pH 7.4, mean of 4 injections): 4468.706 µg/mL
- Conc. ([2]; pH 7.4, single HPLC injections of duplicate vials): 4593.8 µg/mL and 4408.7 µg/mL and 4338.8 µg/mL and 4533.6 µg/mL
- AUC [3, 6]: 2227 ng·h/mL
- Cmax [3, 6]: 1.386 µg/mL
- t1/2 [3, 6]: 102 min
- F ([3]; animal 1, 10 mg/kg oral, mean AUC after i.v. administration used for calculation, maleate): 50%
- AUC [3, 7]: 1768 ng·h/mL
- Cmax [3, 7]: 1.039 µg/mL
- t1/2 [3, 7]: 72 min
- tmax [3, 7]: 30 min
- F ([3]; animal 2, 10 mg/kg oral, mean AUC after i.v. administration used for calculation, maleate): 40%
- AUC [3, 8]: ~2000 ng·h/mL
- tmax [3, 8]: 22.8 min
- AUC [3, 9]: 1997 ng·h/mL
- t1/2 (terminal half-life) [3, 9]: 90 min
- tmax [3, 9]: 24 min
- F (oral bioavailability) ([3]; mean of 2 rats, 10 mg/kg oral, mean AUC after i.v. administration used for calculation, maleate, 10 mg/kg): 45%
- Plasma concentration ([3]; rat R1, 0.5 h, 10 mg/kg oral, maleate, 10 mg/kg): 1.251 µg/mL
- Plasma concentration ([3]; rat R1, 1 h, 10 mg/kg oral, maleate, 10 mg/kg): 0.907 µg/mL
- Plasma concentration ([3]; rat R1, 2 h, 10 mg/kg oral, maleate, 10 mg/kg): 0.289 µg/mL
- Plasma concentration ([3]; rat R1, 3 h, 10 mg/kg oral, maleate, 10 mg/kg): 0.157 µg/mL
- Plasma concentration ([3]; rat R1, 5 h, 10 mg/kg oral, maleate, 10 mg/kg): 0.045 µg/mL
- Plasma concentration ([3]; rat R1, 7 h, 10 mg/kg oral, maleate, 10 mg/kg): 0.041 µg/mL
- Plasma concentration ([3]; rat R2, 0.5 h, 10 mg/kg oral, maleate, 10 mg/kg): 1.039 µg/mL
- Plasma concentration ([3]; rat R2, 1 h, 10 mg/kg oral, maleate, 10 mg/kg): 0.639 µg/mL
- Plasma concentration ([3]; rat R2, 2 h, 10 mg/kg oral, maleate, 10 mg/kg): 0.317 µg/mL
- Plasma concentration ([3]; rat R2, 3 h, 10 mg/kg oral, maleate, 10 mg/kg): 0.095 µg/mL
- Plasma concentration ([3]; rat R2, 5 h, 10 mg/kg oral, maleate, 10 mg/kg): 0.075 µg/mL
- Plasma concentration ([3]; rat R2, 7 h, 10 mg/kg oral, maleate, 10 mg/kg): 0.013 µg/mL

Compound: CCCCCCCC(=O)O [Caprylic acid]
- pKa1 [1]: 4.89

Compound: CC(=O)N1CCN(CCOCc2ccn(-c3ccc(F)c(F)c3)n2)CC1 [Example 0, 1-(4-(2-((1-(3,4-difluorophenyl)-1H-pyrazol-3-yl)methoxy)ethyl)piperazin-1-yl)ethanone]
- number of volumes needed to dissolve the solid ([4]; CH2Cl2, room temperature): 3 volumes
- number of volumes needed to dissolve the solid ([4]; CH3CN, room temperature): 15 volumes
- number of volumes needed to dissolve the solid ([4]; EtOH, room temperature): 4 volumes
- number of volumes needed to dissolve the solid ([4]; H2O, room temperature, heated to reflux at 50 volumes, no dissolution observed): > 50^[1] volumes
- number of volumes needed to dissolve the solid ([4]; MIBK, room temperature): 17 volumes
- number of volumes needed to dissolve the solid ([4]; THF, room temperature): 4 volumes
- pKa [5]: 6.37

Compound: CCCCCCCCCC(=O)O [Capric acid]
- pKa1 [1]: 4.9

Compound: Br [Hydrobromic acid]
- pKa1 [1]: Strong

Compound: CC(=O)N1CCN(CCOCc2ccn(-c3ccc(F)c(F)c3)n2)CC1 (as salt: maleate) [Example 2]
- melting point: 160 to 162 °C

Compound: O=[N+]([O-])O [Nitric acid]
- pKa1 [1]: Strong

Compound: CCCCCC(=O)O [Caproic acid]
- pKa1 [1]: 4.88

Compound: CCS(=O)(=O)O [Ethanesulfonic acid]
- pKa1 [1]: 2.05
